The target of series [1] is T1, von Hippel-Lindau disease tumor suppressor/SWI/SNF-related matrix-associated actin-dependent regulator of chromatin subfamily A member 4 (Homo sapiens, UniProt P51532+P40337). The series is described as follows: PROTAC activity at VHL/SMARCA4 in human HT-1080 cells assessed as induction of SMARCA4 degradation by measuring maximum efficacy incubated for 6 hrs by Nano-Glo HiBiT Lytic Detection Assay relative to control. It counts as cell-based.
Target sequence in this assay (P40337 whole entry, looked up): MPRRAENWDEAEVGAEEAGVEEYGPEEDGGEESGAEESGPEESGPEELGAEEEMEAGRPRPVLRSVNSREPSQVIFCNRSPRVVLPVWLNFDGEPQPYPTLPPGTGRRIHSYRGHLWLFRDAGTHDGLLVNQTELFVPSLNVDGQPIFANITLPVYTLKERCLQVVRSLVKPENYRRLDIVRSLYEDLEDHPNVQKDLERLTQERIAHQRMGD
Target sequence in this assay (P51532 whole entry, looked up): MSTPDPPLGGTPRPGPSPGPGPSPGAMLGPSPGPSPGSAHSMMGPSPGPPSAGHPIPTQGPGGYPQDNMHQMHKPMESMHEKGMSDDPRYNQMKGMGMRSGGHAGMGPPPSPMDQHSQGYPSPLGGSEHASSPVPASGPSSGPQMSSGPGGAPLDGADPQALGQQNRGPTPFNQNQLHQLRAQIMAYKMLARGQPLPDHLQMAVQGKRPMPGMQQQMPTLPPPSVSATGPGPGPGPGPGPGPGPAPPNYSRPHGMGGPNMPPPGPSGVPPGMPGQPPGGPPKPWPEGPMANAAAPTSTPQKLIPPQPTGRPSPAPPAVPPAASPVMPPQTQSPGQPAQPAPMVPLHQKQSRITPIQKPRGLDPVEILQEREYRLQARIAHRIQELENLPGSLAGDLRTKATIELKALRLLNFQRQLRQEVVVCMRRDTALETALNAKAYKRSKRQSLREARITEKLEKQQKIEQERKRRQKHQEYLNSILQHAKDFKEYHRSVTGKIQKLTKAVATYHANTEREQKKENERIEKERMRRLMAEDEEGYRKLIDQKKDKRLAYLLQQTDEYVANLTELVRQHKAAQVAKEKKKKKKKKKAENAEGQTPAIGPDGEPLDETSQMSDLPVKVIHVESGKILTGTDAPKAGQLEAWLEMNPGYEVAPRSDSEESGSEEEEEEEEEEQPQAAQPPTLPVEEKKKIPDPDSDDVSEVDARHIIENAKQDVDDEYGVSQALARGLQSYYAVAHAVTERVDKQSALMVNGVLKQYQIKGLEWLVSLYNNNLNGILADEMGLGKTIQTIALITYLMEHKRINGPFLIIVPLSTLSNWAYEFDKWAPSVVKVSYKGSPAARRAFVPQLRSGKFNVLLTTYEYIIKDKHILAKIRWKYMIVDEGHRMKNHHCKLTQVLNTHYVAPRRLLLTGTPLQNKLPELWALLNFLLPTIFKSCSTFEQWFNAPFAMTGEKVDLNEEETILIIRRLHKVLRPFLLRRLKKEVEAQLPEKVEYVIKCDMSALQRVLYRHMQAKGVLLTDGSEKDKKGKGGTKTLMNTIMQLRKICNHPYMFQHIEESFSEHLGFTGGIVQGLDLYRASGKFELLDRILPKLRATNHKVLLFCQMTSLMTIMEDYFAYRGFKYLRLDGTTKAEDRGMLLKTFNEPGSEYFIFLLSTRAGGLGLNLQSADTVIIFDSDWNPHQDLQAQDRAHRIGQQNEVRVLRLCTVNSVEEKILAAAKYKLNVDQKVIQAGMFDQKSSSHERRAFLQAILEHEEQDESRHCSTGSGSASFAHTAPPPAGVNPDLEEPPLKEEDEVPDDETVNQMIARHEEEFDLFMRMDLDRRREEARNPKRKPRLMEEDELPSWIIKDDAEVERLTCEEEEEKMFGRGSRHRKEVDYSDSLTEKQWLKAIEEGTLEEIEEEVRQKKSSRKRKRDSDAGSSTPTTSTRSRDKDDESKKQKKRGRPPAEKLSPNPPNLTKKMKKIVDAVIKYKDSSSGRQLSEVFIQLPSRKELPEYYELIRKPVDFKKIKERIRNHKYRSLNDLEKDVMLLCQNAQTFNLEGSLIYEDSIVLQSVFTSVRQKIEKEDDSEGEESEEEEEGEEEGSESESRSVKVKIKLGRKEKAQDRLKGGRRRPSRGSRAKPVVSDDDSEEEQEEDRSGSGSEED

Series [2] relates to NCI-H838. Description: Antiproliferative activity against human NCI-H838 cells assessed as cell growth inhibition incubated for 6 days by Cell Titer Glo assay. The note with it: NCI-H838, 144 h, time 6 day. It counts as functional. In general terms: ATP-based viability assays read luminescence as a measure of living cells.
The target in series [3] is T2, von Hippel-Lindau disease tumor suppressor/SWI/SNF-related matrix-associated actin-dependent regulator of chromatin subfamily A member 2 (Homo sapiens, UniProt P51531+P40337). Description: PROTAC activity at VHL/SMARCA2 in human HT-1080 cells assessed as induction of SMARCA2 degradation by measuring maximum efficacy incubated for 6 hrs by Nano-Glo HiBiT Lytic Detection Assay relative to control. It counts as cell-based. For orientation: With HiBiT, luminescence reflects the tagged protein that the partner subunit can reach.
Target sequence in this assay (P40337 whole entry, looked up): as the sequence (P40337 whole entry, looked up) above
Target sequence in this assay (P51531 whole entry, looked up): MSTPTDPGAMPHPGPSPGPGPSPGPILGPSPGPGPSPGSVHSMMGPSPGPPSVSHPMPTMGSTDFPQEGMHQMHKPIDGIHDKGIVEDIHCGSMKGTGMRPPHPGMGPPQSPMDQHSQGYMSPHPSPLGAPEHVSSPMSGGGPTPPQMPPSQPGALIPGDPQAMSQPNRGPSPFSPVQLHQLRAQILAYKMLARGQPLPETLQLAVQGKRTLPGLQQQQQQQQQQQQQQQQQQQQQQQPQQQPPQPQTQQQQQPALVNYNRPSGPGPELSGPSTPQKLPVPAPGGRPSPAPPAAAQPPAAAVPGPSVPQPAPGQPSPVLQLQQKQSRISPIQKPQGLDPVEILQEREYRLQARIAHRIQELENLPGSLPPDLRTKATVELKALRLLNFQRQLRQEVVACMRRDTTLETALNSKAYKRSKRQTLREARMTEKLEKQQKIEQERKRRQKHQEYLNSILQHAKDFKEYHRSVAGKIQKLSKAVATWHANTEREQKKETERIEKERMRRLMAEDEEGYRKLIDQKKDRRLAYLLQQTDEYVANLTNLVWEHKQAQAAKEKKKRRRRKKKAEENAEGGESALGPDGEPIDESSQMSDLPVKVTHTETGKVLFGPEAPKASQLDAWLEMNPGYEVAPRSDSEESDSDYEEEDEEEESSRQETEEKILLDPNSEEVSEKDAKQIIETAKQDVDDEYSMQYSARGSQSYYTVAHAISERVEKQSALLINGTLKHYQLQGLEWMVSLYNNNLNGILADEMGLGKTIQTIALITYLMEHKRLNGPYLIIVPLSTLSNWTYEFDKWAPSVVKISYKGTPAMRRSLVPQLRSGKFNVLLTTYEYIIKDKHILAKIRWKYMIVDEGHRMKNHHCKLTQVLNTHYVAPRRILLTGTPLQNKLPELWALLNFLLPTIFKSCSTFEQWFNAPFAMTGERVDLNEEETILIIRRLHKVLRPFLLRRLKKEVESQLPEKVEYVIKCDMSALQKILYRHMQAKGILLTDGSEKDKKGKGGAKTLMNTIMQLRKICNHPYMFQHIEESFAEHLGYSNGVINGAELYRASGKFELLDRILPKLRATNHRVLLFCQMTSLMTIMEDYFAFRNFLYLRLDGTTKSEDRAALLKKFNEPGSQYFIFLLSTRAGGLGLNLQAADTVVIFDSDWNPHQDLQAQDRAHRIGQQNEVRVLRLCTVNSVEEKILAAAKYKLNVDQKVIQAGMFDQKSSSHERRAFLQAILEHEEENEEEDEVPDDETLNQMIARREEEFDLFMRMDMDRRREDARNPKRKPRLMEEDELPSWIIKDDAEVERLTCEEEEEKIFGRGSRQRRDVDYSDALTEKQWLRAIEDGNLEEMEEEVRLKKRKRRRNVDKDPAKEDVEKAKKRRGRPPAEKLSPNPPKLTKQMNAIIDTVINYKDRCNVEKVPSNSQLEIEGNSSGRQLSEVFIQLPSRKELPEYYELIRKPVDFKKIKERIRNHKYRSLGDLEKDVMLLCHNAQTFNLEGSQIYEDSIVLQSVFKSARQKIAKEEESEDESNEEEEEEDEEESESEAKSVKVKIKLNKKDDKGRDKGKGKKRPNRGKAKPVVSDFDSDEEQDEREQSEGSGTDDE

Series [4] in a line: Metabolic stability in female BALB/c mouse microsomes assessed as half life administered intravenously. It counts as ADME. The note with it: route iv.
The target in series [5] is von Hippel-Lindau disease tumor suppressor (Homo sapiens, UniProt P40337). The series is described as follows: Binding affinity to VHL (unknown origin) incubated for 30 mins by HTRF assay. (In general: In TR-FRET formats the signal depends on donor and acceptor labels being close together.)
A short description of series [6]: Metabolic stability in female BALB/c mouse microsomes assessed as hepatic extraction ratio administered intravenously. It counts as ADME. The note with it: route iv, read-out: ERH.
Series [7] addresses T1, von Hippel-Lindau disease tumor suppressor/SWI/SNF-related matrix-associated actin-dependent regulator of chromatin subfamily A member 4. Description: PROTAC activity at VHL/SMARCA4 in human HT-1080 cells assessed as induction of SMARCA4 degradation incubated for 24 hrs by Nano-Glo HiBiT Lytic Detection Assay. It counts as cell-based.
Target sequence in this assay (P51532 whole entry): as the sequence (P51532 whole entry, looked up) above
Target sequence in this assay (P40337 whole entry): as the sequence (P40337 whole entry, looked up) above
Series [8] deals with T2, von Hippel-Lindau disease tumor suppressor/SWI/SNF-related matrix-associated actin-dependent regulator of chromatin subfamily A member 2. The series is described as follows: PROTAC activity at VHL/SMARCA2 in human HT-1080 cells assessed as induction of SMARCA2 degradation incubated for 24 hrs by Nano-Glo HiBiT Lytic Detection Assay. It counts as cell-based.
Target sequence in this assay (P51531 whole entry): as the sequence (P51531 whole entry, looked up) above
Target sequence in this assay (P40337 whole entry): as the sequence (P40337 whole entry, looked up) above
Series [9] in a line: Selectivity ratio of DC50 for PROTAC activity at VHL/SMARCA4 in human HT-1080 cells (unknown origin) to DC50 for VHL/SMARCA2 in human HT-1080 cells (unknown origin). It counts as cell-based.
The test system of series [10] is Calu-6. The series is described as follows: Antiproliferative activity against human Calu-6 cells assessed as cell growth inhibition incubated for 6 days by Cell Titer Glo assay. It counts as functional. The note with it: Calu-6, 144 h, time 6 day.
Series [11] has as its system Calu-6. The series is described as follows: Antiproliferative activity against human Calu-6 cells assessed as inhibition of cell growth at 1 uM incubated for 6 days by Cell Titer Glo assay. The note with it: Calu-6, 144 h, time 6 day. It counts as functional.
The target of series [12] is SWI/SNF-related matrix-associated actin-dependent regulator of chromatin subfamily A member 2 (Homo sapiens, UniProt P51531). Description: Binding affinity to SMARCA2 (unknown origin) incubated for 30 mins by HTRF assay.
Series [13] deals with SWI/SNF-related matrix-associated actin-dependent regulator of chromatin subfamily A member 4 (Homo sapiens, UniProt P51532). Description: Binding affinity to SMARCA4 (unknown origin) incubated for 30 mins by HTRF assay.
Series [14] has as its target T2, von Hippel-Lindau disease tumor suppressor/SWI/SNF-related matrix-associated actin-dependent regulator of chromatin subfamily A member 2. Description: Binding affinity to flag-tagged SMARCA2/VHL (unknown origin) assessed as ternary complex formation by measuring HTRF signal incubated for 120 mins by Envision reader analysis. It counts as protein assay.
Target sequence in this assay (P40337 whole entry, looked up): as above
Target sequence in this assay (P51531 whole entry, looked up): as the sequence (P51531 whole entry, looked up) above

In general, Emax refers to the greatest response seen or fitted, relative to the assay's reference. The GI50 is the concentration that inhibits growth by half. One may read the half-life as the time in which the quantity being followed falls by half. By IC50 is commonly meant the concentration at which inhibition is half-maximal. Read a low IC50 as inhibition by little substance. Usually DC50 stands for the concentration at which degradation of the target reaches its halfway point. Usually inhibition stands for the change of the read-out against control, counted positive when it falls.

Sequence of von Hippel-Lindau disease tumor suppressor (P40337 whole entry): as the sequence (P40337 whole entry, looked up) above
Sequence of SWI/SNF-related matrix-associated actin-dependent regulator of chromatin subfamily A member 2 (P51531 whole entry): as the sequence (P51531 whole entry, looked up) above
Sequence of SWI/SNF-related matrix-associated actin-dependent regulator of chromatin subfamily A member 4 (P51532 whole entry): as the sequence (P51532 whole entry, looked up) above

`Cc1ncsc1-c1ccc([C@H](C)NC(=O)[C@@H]2C[C@@H](O)CN2C(=O)[C@@H](n2cc([C@H]3CC[C@H](CN4CCC(c5ccc6c(c5)C(C)(C)c5nc(=O)c7c(Cl)cccc7n5-6)CC4)CC3)nn2)C(C)(C)C)cc1`: the Emax in series [1] turned out to be 78%; in series [3] it was 97%. The GI50 in [2] was 32 nM; in series [10] it was more than 1000 nM. The half-life in [4] was 1.5 h. This compound registered an IC50 in series [5] of 1.5 nM. The hepatic extraction ratio in [6] turned out to be 0.44. Further, the DC50 in series [7] came out at 12 nM; in [8], 0.28 nM. Further, the Ratio in series [9] turned out to be 43.
For the compound `Cc1ncsc1-c1ccc([C@H](C)NC(=O)[C@@H]2C[C@@H](O)CN2C(=O)[C@@H](c2cc(N3CCC(CN4CCC(c5ccc6c(c5)-n5c(nc(=O)c7c(Cl)cccc75)C6(C)C)CC4)CC3)no2)C(C)C)cc1`, the inhibition at 1 µM in series [11] is less than 15%. Moreover, the IC50 turned out to be 30 nM in [12], 63 nM in [13] and 8.6 nM in series [5]. Also, the Emax in series [1] was 69%; in series [3], 97%. The GI50 in [2] was 27 nM; in [10], more than 1000 nM. The DC50 in [7] is 63 nM; in series [8], 1.7 nM. Moreover, the Ratio in series [9] is 37. Besides, the Activity entry in series [14] is “Active; Smarca2-Vhl Shows 60% Greater Auc Compared To Smarca4-Vhl Was Observed”.

For the origin of these results see ChEMBL document CHEMBL6096658, “Discovery of Potent, Highly Selective, and Efficacious SMARCA2 Degraders” (J Med Chem, 2025).
